Among the test systems are A549 NSCLC; BT-549 breast; DU-145 prostate; HOP-92 NSCLC; LOX IMVI melanoma; NCI-H522 lung; OVCAR-4 ovarian; SF-539 CNS; SK-MEL-28 melanoma; SW-620 colon.
What all share (assay): NCI anticancer screen, dose series, 48 h

Several values for one entry are separate records, joined by “and”; a condition that tells them apart may be missing. Equal entries are not always repeated.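 Cultured in 96-well plates, cells were exposed to test compound for 48 hours across five concentrations. The concentration for 50% growth inhibition is given as GI50. TGI marks complete inhibition of growth.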 Bounds are passed on as bounds.

This note sets out measurements from PubChem BioAssay (NCI).

For the compound `COc1ccc(N=C(C)C(C)=Nc2ccc(OC)cc2)cc1`, the TGI with A549 NSCLC, in the assay with BT-549 breast, in the assay on DU-145 prostate, in the assay on HOP-92 NSCLC, with LOX IMVI melanoma and in the assay on NCI-H522 lung was > 100 µM each time. For the same compound, the TGI in the assay on OVCAR-4 ovarian, with SF-539 CNS, in the assay on SK-MEL-28 melanoma and in the assay with SW-620 colon was > 100 µM each time.

As to `C[C@H](NC(=O)C(C)(Cc1ccc(O)cn1)NC(=O)c1ccccc1)c1ccccc1` (some centres undefined), the TGI in the assay with A549 NSCLC, with BT-549 breast, with DU-145 prostate, with HOP-92 NSCLC, in the assay on LOX IMVI melanoma and with NCI-H522 lung was > 100 µM throughout. The TGI with OVCAR-4 ovarian, in the assay on SF-539 CNS, in the assay with SK-MEL-28 melanoma and in the assay on SW-620 colon was > 100 µM in each case.

`CC(C)=CCNc1ncnc2c1ncn2CCC(=O)O`: the TGI with A549 NSCLC, in the assay with BT-549 breast, in the assay on DU-145 prostate, with HOP-92 NSCLC, in the assay with LOX IMVI melanoma and in the assay on NCI-H522 lung was > 100 µM each time. Also, the TGI in the assay on OVCAR-4 ovarian, in the assay on SF-539 CNS, in the assay on SK-MEL-28 melanoma and with SW-620 colon was > 100 µM each time.

With `COC(=O)c1ccc(C)cc1C1CN=NC12Cc1cccc(C)c1C2=O` (centres undefined), the TGI with A549 NSCLC was > 100 µM; in the assay on BT-549 breast, 91.4 µM; in the assay on DU-145 prostate, > 100 µM; in the assay on HOP-92 NSCLC, > 100 µM; in the assay with LOX IMVI melanoma it was 63.9 µM; with NCI-H522 lung, 78.1 µM. Moreover, the TGI in the assay on OVCAR-4 ovarian is > 100 µM; in the assay with SF-539 CNS it was > 100 µM; in the assay on SK-MEL-28 melanoma, 91.8 µM; in the assay with SW-620 colon, > 100 µM.

Take `CCOC(=O)c1cnc2n(c1=O)[C@H]1CCCC[C@@H]1N2`: the TGI in the assay with A549 NSCLC, in the assay with BT-549 breast, in the assay with DU-145 prostate, with HOP-92 NSCLC, in the assay on LOX IMVI melanoma and with NCI-H522 lung was > 100 µM each time. Also, the TGI with OVCAR-4 ovarian, with SF-539 CNS, with SK-MEL-28 melanoma and in the assay on SW-620 colon was > 100 µM in each case.

Regarding `O=C(NC1=C(Cl)C(=O)c2ccccc2C1=O)C(=O)c1c(O)c2ccccc2oc1=O`, the TGI is 6.07 µM in the assay with A549 NSCLC; 14.6 µM in the assay on BT-549 breast; 2.93 µM with DU-145 prostate; 32.3 µM in the assay with HOP-92 NSCLC; > 45.9 µM with LOX IMVI melanoma; 16.1 µM in the assay with NCI-H522 lung. Also, the TGI in the assay on OVCAR-4 ovarian was 19.4 µM; in the assay with SF-539 CNS, 11.1 µM; in the assay on SK-MEL-28 melanoma, 6.2 µM; with SW-620 colon it was > 40.9 µM.

Turning to `Oc1ccc(Nc2nc(Cl)c3[nH]cnc3n2)cc1`, the TGI in the assay on A549 NSCLC was > 100 µM; in the assay on BT-549 breast, > 100 µM; in the assay with DU-145 prostate it was > 100 µM; with HOP-92 NSCLC, 38.2 µM; with LOX IMVI melanoma, > 100 µM; with NCI-H522 lung, > 100 µM. The TGI in the assay with OVCAR-4 ovarian, with SF-539 CNS and in the assay with SW-620 colon was > 100 µM in each case.

As to `Cc1cc2ccccc2oc(=O)/c1=N\Nc1ccccc1`, the TGI in the assay on A549 NSCLC, in the assay on BT-549 breast, in the assay with DU-145 prostate, with HOP-92 NSCLC, in the assay on LOX IMVI melanoma and with NCI-H522 lung was > 100 µM throughout. In addition, the TGI in the assay on OVCAR-4 ovarian, with SF-539 CNS, in the assay on SK-MEL-28 melanoma and in the assay on SW-620 colon was > 100 µM throughout.

Take `C=C1c2nc3ccccc3n2C=C(c2ccccc2)N1c1ccc(C)cc1`: the TGI in the assay on A549 NSCLC, in the assay on BT-549 breast, in the assay with DU-145 prostate, in the assay with HOP-92 NSCLC, in the assay with LOX IMVI melanoma and in the assay with NCI-H522 lung was > 100 µM in each case. Also, the TGI with OVCAR-4 ovarian, with SF-539 CNS and with SW-620 colon was > 100 µM throughout.

For `C=CCN1C(=O)C[C@H](Cc2ccccc2)NC(=O)C[C@H](Cc2ccccc2)N(CC=C)C(=O)C[C@H](Cc2ccccc2)NC(=O)C[C@@H]1Cc1ccccc1`, the TGI was > 100 µM in the assay on A549 NSCLC; > 100 µM in the assay on BT-549 breast; > 100 µM in the assay on DU-145 prostate; 80.4 µM in the assay on HOP-92 NSCLC; > 100 µM in the assay on LOX IMVI melanoma; 72 µM with OVCAR-4 ovarian. Further, the TGI with SF-539 CNS, in the assay with SK-MEL-28 melanoma and with SW-620 colon was > 100 µM each time.

As to `O=C(Oc1cncc(Cl)c1)c1cc2ccccc2sc1=O`, the TGI in the assay on A549 NSCLC is > 100 µM; with BT-549 breast, > 100 µM; in the assay with DU-145 prostate, > 100 µM; with HOP-92 NSCLC it was > 100 µM; in the assay with LOX IMVI melanoma, > 100 µM; in the assay on NCI-H522 lung, 47.3 µM. Also, the TGI in the assay on OVCAR-4 ovarian was > 100 µM; in the assay with SF-539 CNS, 57.9 µM; in the assay on SK-MEL-28 melanoma, > 100 µM; in the assay on SW-620 colon it was > 100 µM.

As to `CCN(CC)CC[n+]1ccc2c(C)c3[nH]c4ccccc4c3c(C)c2c1`, the GI50 in the assay with A549 NSCLC is 0.466 µM and 0.498 µM and 0.951 µM; in the assay with HOP-92 NSCLC it was 0.342 µM and 0.833 µM and 0.242 µM; with NCI-H522 lung, 0.247 µM; in the assay on OVCAR-4 ovarian, 0.192 µM and 0.799 µM and 0.0865 µM; in the assay on SF-539 CNS, 0.921 µM; with SK-MEL-28 melanoma it was 1.13 µM. Further, the GI50 with SW-620 colon is 0.654 µM. For the same compound, the TGI in the assay on A549 NSCLC is 5.22 µM and 5.45 µM and 8.14 µM; with BT-549 breast, 4.95 µM; in the assay on DU-145 prostate, 3.72 µM; in the assay on HOP-92 NSCLC, 1.94 µM and 4.34 µM and 2.71 µM; with LOX IMVI melanoma, 2.13 µM and 3.73 µM and 16.3 µM; with NCI-H522 lung it was 1.36 µM and 2.58 µM and 1.87 µM. In addition, the TGI in the assay with OVCAR-4 ovarian is 1.2 µM and 4.27 µM and 0.483 µM; in the assay with SF-539 CNS, 1.66 µM and 5.78 µM and 2.12 µM; with SK-MEL-28 melanoma, 1.3 µM and 6.15 µM and 2.1 µM; in the assay on SW-620 colon, 5.65 µM and 13.2 µM and 6.96 µM.

Turning to `CC(=O)N1CCOC12N=NC(C)(C)O2` (centres undefined), the TGI in the assay on A549 NSCLC, in the assay with BT-549 breast, in the assay on DU-145 prostate, in the assay on HOP-92 NSCLC, in the assay with LOX IMVI melanoma and in the assay with NCI-H522 lung was > 100 µM throughout. Moreover, the TGI with OVCAR-4 ovarian, in the assay with SF-539 CNS, in the assay on SK-MEL-28 melanoma and in the assay on SW-620 colon was > 100 µM in each case.
